Results published in article PMC10494966 (RSC Advances, 2023).

Target: T1, Pancreatic lipase (Sus scrofa, UniProt P00591)
T1 sequence (P00591 1-450): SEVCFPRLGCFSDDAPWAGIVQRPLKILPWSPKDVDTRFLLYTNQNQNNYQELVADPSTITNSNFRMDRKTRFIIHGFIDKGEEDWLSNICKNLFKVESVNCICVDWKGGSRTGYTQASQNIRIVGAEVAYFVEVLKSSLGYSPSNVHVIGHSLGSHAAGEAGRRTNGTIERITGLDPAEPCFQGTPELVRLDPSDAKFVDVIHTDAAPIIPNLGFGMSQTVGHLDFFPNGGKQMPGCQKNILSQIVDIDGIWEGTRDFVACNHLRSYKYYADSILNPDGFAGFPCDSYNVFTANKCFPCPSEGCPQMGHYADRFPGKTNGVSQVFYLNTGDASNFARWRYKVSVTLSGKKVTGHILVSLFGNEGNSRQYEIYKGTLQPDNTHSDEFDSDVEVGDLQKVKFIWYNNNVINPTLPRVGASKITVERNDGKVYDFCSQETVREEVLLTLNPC
Test: spectrophotometric p-nitrophenyl palmitate hydrolysis, single concentration […]
Assay type: biochemical

| inhibition at 250 µM | Compound |
| --- | --- |
| 72% | COc1cc2cc(Oc3ccc4ccc(=O)oc4c3)c(=O)oc2cc1O [compound 1, daphnoretin] |
| 52% | COC(=O)c1c(O)cc(O)c2c1OC(c1ccc(O)cc1)C(O)C2 (stereo not shown) [compound 2, 5,7,4′-trihydroxy-8-methoxycarbonyl flavanol] |
| 61.8% | O=C1c2c(O)cc(O)cc2O[C@H](c2ccc(O)cc2)[C@@H]1[C@@H]1C(=O)c2c(O)cc(O)cc2O[C@@H]1c1ccc(O)cc1 [compound 3, neochamaejasmin A] |
| 68% | C[C@@H]1O[C@@H](OC[C@H]2O[C@@H](Oc3c(-c4ccc(O)c(O)c4)oc4cc(O)cc(O)c4c3=O)[C@H](O[C@@H]3O[C@@H](C)[C@H](O)[C@@H](O)[C@H]3O)[C@@H](O)[C@H]2O)[C@H](O)[C@H](O)[C@H]1O [compound 7, quercetin 3-O-α-L-rhamnopyranosyl-(1 → 2)-[α-L-rhamnopyranosyl-(1 → 6)]-β-D-galactopyranoside] |
